From US20060078629A1, “Nutritional compositions and use thereof” (priority 2003, published 2006)

Legend:
[1] = test system: DNA damage in various tissues; details: Food Chem Toxicol 2000, 38:15; cited from earlier work
[2] = test system: chemically induced cancers; details: in vivo; cited from earlier work
[3] = slow (e.g. 20 minutes) intravenous injection, 400 mg glutathione in 20 ml saline
From the text: According to one aspect of the invention, the intravenous administration of glutathione is used to achieve the desired blood levels. […] Repeated injections may be necessary in severely ill patients.

SMILES: OCc1c[nH]c2ccccc12 [Example I3C, Indole-3-carbinol]
- decrease of DNA damage in various tissues [1]: 67-82%
- prevention of chemically induced cancers [2]: up to 90%

SMILES: N[C@@H](CCC(=O)N[C@@H](CS)C(=O)NCC(=O)O)C(=O)O [glutathione]
- achieving the desired blood glutathione levels [3]: effective
